Consider 3 molecules from ChEMBL document CHEMBL5608235, “Tricyclic Benzo[1,3]oxazinyloxazolidinones as Potent Antibacterial Agents against Drug-Resistant Pathogens” (J Med Chem, 2024).

Data set [1] deals with Cell membrane. Put plainly: Disruption of cell membrane in methicillin resistant Staphylococcus aureus ATCC 33592 assessed as cell lysis at MIC incubated for 6 hrs by Scanning electron microscopic analysis. Type of data set: cell membranes.
A short description of data set [2]: Oral bioavailability in BALB/c mouse at 10 mg/kg administration measured upto 24 hrs by LC-MS/MS analysis. Type of data set: ADME, organism-based. The following applies: BALB/c, in vivo.
For data set [3], the system named is Mycobacterium tuberculosis. The experiment in a line: Antibacterial activity against Mycobacterium tuberculosis H37Rv assessed as inhibition of bacterial growth incubated for 7 days by alamar blue assay. Conditions: 168 h, time 7 day. The class given is functional.
For data set [4], the system named is Staphylococcus aureus. The experiment in a line: Antibacterial activity against Staphylococcus aureus ATCC25923 assessed as inhibition of bacterial growth incubated for 18 hrs by microdilution broth assay. Type of data set: functional.
Data set [5] concerns Enterococcus faecalis. Put plainly: Antibacterial activity against Enterococcus faecalis ATCC29212 assessed as inhibition of bacterial growth incubated for 18 hrs by microdilution broth assay. The class given is functional. On the technique in general: Broth dilution looks for growth in wells or tubes with falling amounts of substance.
Data set [6] relates to Bacillus subtilis. The experiment in a line: Antibacterial activity against Bacillus subtilis ATCC6633 assessed as inhibition of bacterial growth incubated for 18 hrs by microdilution broth assay. Type of data set: functional.
Data set [7] relates to Staphylococcus epidermidis. The experiment in a line: Antibacterial activity against Staphylococcus epidermidis ATCC12228 assessed as inhibition of bacterial growth incubated for 18 hrs by microdilution broth assay. Type of data set: functional.
A short description of data set [8]: Cytotoxicity against African green monkey Vero cells incubated for 48 hrs by MTT assay. Type of data set: toxicity, cell-based, Chlorocebus sabaeus. In general terms: Tetrazolium assays rely on reduction of a dye to a coloured formazan, in cell work by metabolically active cells.
Data set [9] has as its system Staphylococcus aureus. Put plainly: Antibacterial activity against methicillin resistant Staphylococcus aureus clinical isolate 20-1 assessed as inhibition of bacterial growth incubated for 7 days by alamar blue assay. The class given is functional. Conditions: clinical isolate 20-1, 168 h, time 7 day. (The colour change of resazurin is a common sign of viable cells or microbes.)

Data set [10] has as its system Staphylococcus aureus. The experiment in a line: Antibacterial activity against methicillin resistant Staphylococcus aureus clinical isolate 20-2 assessed as inhibition of bacterial growth incubated for 7 days by alamar blue assay. The class given is functional. The following applies: clinical isolate 20-2, 168 h, time 7 day.
The test system of data set [11] is Staphylococcus epidermidis. Put plainly: Antibacterial activity against methicillin resistant Staphylococcus epidermidis clinical isolate 20-1 assessed as inhibition of bacterial growth incubated for 7 days by alamar blue assay. The class given is functional. The following applies: clinical isolate 20-1, 168 h, time 7 day.
Data set [12] deals with Staphylococcus epidermidis. Put plainly: Antibacterial activity against methicillin resistant Staphylococcus epidermidis clinical isolate 20-2 assessed as inhibition of bacterial growth incubated for 7 days by alamar blue assay. Type of data set: functional. Conditions: clinical isolate 20-2, 168 h, time 7 day.
The test system of data set [13] is Staphylococcus aureus. Put plainly: Antibacterial activity against vancomycin intermediate Staphylococcus aureus ATCC700699 assessed as inhibition of bacterial growth incubated for 7 days by alamar blue assay. The following applies: ATCC700699, 168 h, time 7 day. Type of data set: functional.
For data set [14], the system named is Enterococcus. Put plainly: Antibacterial activity against vancomycin resistant Enterococcus clinical isolate 20-1 assessed as inhibition of bacterial growth incubated for 7 days by alamar blue assay. The class given is functional. Conditions: clinical isolate 20-1, 168 h, time 7 day.
Data set [15] deals with Staphylococcus aureus. Put plainly: Antibacterial activity against Linezolid resistant Staphylococcus aureus clinical isolate 20-1 assessed as inhibition of bacterial growth incubated for 7 days by alamar blue assay. The class given is functional. The following applies: clinical isolate 20-1, 168 h, time 7 day.
For data set [16], the system named is Staphylococcus aureus. The experiment in a line: Antibacterial activity against Linezolid resistant Staphylococcus aureus clinical isolate 20-2 assessed as inhibition of bacterial growth incubated for 7 days by alamar blue assay. The class given is functional. The following applies: clinical isolate 20-2, 168 h, time 7 day.
Data set [17] deals with Enterococcus faecalis. Put plainly: Antibacterial activity against Linezolid resistant Enterococcus faecalis clinical isolate 20-1 assessed as inhibition of bacterial growth incubated for 7 days by alamar blue assay. The class given is functional. Conditions: clinical isolate 20-1, 168 h, time 7 day.
The test system of data set [18] is Enterococcus faecalis. Put plainly: Antibacterial activity against Linezolid resistant Enterococcus faecalis clinical isolate 20-2 assessed as inhibition of bacterial growth incubated for 7 days by alamar blue assay. The class given is functional. The following applies: clinical isolate 20-2, 168 h, time 7 day.
Data set [19] in a line: Metabolic stability in ICR mouse liver microsomes assessed as compound remaining at 10 uM incubated for 60 mins in absence of NADPH by LC-MS/MS analysis. Conditions: read-out: Stability. Type of data set: ADME, Microsome.
A short description of data set [20]: Metabolic stability in human liver microsomes assessed as compound remaining at 10 uM incubated for 60 mins in absence of NADPH by LC-MS/MS analysis. The class given is ADME, Microsome. Conditions: read-out: Stability.
Data set [21] is described as follows: Metabolic stability in ICR mouse liver microsomes assessed as substrate remaining at 10 uM incubated for 60 mins in presence of NADPH by LC-MS/MS analysis. Conditions: read-out: Stability. The class given is ADME, Microsome.
Data set [22] is described as follows: Metabolic stability in human liver microsomes assessed as substrate remaining at 10 uM incubated for 60 mins in presence of NADPH by LC-MS/MS analysis. The following applies: read-out: Stability. Type of data set: ADME, Microsome.

≈ marks a conversion by molar mass, not a printed value. Calls of active or inactive are those of the source. The rule behind the calls is not given here.

Regarding `CCCCCCCCCC(=O)N[C@@H](Cc1c[nH]c2ccccc12)C(=O)N[C@H](CC(N)=O)C(=O)N[C@@H](CC(=O)O)C(=O)N[C@@H]1C(=O)NCC(=O)N[C@@H](CCCN)C(=O)N[C@@H](CC(=O)O)C(=O)N[C@H](C)C(=O)N[C@@H](CC(=O)O)C(=O)NCC(=O)N[C@H](CO)C(=O)N[C@@H]([C@H](C)CC(=O)O)C(=O)N[C@@H](CC(=O)c2ccccc2N)C(=O)O[C@@H]1C`, in [1], the result was Active.
Consider `CC(=O)Nc1ccc(O)cc1` [ACETAMINOPHEN], for which, in [2], the bioavailability (as a rule, the share of a dose that reaches the circulation, judged against a reference dose that is usually intravenous) was found to be 27.6%.
As for `COC(=O)NC[C@@H]1OC(=O)N2Cc3cc(-c4ccc(-c5nnn(C)n5)nc4)c(F)cc3O[C@@H]12`, the MIC (commonly the least concentration at which growth counts as inhibited) in data set [3] was found to be 0.49 µg/mL (≈ 1.08 µM); in [4] it was 4 µg/mL (≈ 8.78 µM); in [5] it was 0.5 µg/mL (≈ 1.1 µM); in data set [6] it was 0.125 µg/mL (≈ 0.274 µM); in data set [7], 0.125 µg/mL (≈ 0.274 µM); in data set [9] it was 0.25 µg/mL (≈ 0.549 µM). For the same molecule, the MIC in [10] is 0.25 µg/mL (≈ 0.549 µM); in [11], 0.125 µg/mL (≈ 0.274 µM); in [12], 0.125 µg/mL (≈ 0.274 µM); in [13] it was 0.5 µg/mL (≈ 1.1 µM); in data set [14] it was 0.5 µg/mL (≈ 1.1 µM); in data set [15] it was 8 µg/mL (≈ 17.6 µM). The MIC turned out to be 8 µg/mL (≈ 17.6 µM) in data set [16], 1 µg/mL (≈ 2.2 µM) in data set [17] and 1 µg/mL (≈ 2.2 µM) in data set [18]. The IC50 (in general, the concentration at which inhibition is half-maximal) at 48 h in [8] was found to be 37 µg/mL (≈ 81.2 µM). Besides, the remaining at 1 h, 10 µM in data set [19] was 104%; in data set [20] it was 120%; in data set [21], 102%; in data set [22], 110%.
